In patent US12492188B2, “1H-benzo[D]imidazole derivatives as TLR9 inhibitors for the treatment of fibrosis” (BRISTOL-MYERS SQUIBB COMPANY, priority 2020, dated 2025):
pIC50: −log10 of the molar value. Where two headings read alike, the source gives them in different places.

Legend:
Format in all cases: cell-based
human TLR9 = molecular target: T1, human TLR9 (Homo sapiens, UniProt Q9NR96); test: TLR9 inhibition reporter assay (HEK-Blue cells, secreted embryonic alkaline phosphatase reporter)
T1 construct: host or cells: HEK-Blue cells (HEK293-derived reporter line)
T1 sequence (Q9NR96 26-1032): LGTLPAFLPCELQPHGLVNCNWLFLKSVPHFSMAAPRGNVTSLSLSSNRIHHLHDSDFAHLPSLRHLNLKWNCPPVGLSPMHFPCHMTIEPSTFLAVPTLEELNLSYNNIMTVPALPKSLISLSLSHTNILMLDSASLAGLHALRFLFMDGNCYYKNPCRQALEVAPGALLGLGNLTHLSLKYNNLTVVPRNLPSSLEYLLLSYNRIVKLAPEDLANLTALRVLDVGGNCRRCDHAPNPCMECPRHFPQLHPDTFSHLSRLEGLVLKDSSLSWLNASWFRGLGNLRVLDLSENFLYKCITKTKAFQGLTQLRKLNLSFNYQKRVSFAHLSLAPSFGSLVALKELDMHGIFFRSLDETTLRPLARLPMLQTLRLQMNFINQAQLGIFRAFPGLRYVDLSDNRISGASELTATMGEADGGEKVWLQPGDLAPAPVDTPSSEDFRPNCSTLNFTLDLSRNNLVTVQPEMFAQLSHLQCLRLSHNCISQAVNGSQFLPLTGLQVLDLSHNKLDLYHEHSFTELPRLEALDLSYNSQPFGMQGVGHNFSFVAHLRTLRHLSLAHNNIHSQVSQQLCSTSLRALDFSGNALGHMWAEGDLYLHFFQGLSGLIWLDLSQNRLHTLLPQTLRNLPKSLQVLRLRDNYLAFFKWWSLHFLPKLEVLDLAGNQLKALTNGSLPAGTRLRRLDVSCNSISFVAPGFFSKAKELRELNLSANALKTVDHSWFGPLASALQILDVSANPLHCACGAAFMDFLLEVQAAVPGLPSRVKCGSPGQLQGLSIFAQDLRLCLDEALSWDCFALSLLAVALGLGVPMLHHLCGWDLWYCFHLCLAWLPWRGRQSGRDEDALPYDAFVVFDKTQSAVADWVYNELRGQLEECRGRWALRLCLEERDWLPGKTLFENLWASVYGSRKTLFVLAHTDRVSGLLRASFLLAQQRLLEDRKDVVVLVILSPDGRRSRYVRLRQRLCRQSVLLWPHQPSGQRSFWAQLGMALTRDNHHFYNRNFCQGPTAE
Summary of the method: (§1)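 HEK-Blue cells overexpressing the respective receptor, with an NF-κB/AP-1-driven SEAP reporter, were pre-treated with compound (0.05 nM–50 μM) for 30 min at room temperature. Stimulation used gardiquimod 7.5 μM (TLR7), R848 15.9 μM (TLR8) or ODN2006 5 nM (TLR9); SEAP was read after 22 h at 37 °C as percent inhibition.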

human TLR8 = molecular target: T2, human TLR8 (Homo sapiens, UniProt Q9NR97); test: TLR8 inhibition reporter assay (HEK-Blue cells, secreted embryonic alkaline phosphatase reporter); settings: HEK-Blue cells overexpressing human TLR8, stimulated with R848 15.9 μM; read-out: TLR 8 IC50
T2 construct: host or cells: HEK-Blue cells (HEK293-derived reporter line)
T2 sequence (Q9NR97 27-1041): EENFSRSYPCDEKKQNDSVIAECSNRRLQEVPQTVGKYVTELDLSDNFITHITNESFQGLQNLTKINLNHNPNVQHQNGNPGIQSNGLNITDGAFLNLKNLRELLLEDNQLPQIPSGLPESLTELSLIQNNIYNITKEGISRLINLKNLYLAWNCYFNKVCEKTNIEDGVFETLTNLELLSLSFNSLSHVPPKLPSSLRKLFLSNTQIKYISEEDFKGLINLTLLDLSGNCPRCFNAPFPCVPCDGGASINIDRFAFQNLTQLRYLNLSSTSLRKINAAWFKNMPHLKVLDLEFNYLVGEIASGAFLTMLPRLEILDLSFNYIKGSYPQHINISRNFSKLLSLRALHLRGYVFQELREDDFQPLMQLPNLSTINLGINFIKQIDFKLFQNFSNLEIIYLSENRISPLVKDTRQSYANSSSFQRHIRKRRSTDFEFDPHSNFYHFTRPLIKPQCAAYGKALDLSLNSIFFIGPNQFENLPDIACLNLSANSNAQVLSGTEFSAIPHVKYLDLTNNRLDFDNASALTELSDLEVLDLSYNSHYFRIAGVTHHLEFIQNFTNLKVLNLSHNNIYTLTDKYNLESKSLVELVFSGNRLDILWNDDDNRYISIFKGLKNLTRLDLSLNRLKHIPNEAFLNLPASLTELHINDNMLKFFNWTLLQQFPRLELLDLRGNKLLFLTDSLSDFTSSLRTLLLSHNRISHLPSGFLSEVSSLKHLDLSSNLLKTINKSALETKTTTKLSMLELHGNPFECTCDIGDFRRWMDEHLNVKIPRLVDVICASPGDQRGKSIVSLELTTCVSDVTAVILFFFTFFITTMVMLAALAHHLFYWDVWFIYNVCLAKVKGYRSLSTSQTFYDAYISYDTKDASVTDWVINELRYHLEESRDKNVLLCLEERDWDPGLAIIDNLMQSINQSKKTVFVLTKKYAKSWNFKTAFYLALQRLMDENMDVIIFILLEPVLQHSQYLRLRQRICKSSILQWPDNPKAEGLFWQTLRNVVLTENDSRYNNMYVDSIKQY
Summary of the method: as §1

human TLR7 = molecular target: T3, human TLR7 (Homo sapiens, UniProt Q9NYK1); test: TLR7 inhibition reporter assay (HEK-Blue cells, secreted embryonic alkaline phosphatase reporter); settings: HEK-Blue cells overexpressing human TLR7, stimulated with gardiquimod 7.5 μM; read-out: TLR 7 IC50
T3 construct: host or cells: HEK-Blue cells (HEK293-derived reporter line)
T3 sequence (Q9NYK1 27-1049): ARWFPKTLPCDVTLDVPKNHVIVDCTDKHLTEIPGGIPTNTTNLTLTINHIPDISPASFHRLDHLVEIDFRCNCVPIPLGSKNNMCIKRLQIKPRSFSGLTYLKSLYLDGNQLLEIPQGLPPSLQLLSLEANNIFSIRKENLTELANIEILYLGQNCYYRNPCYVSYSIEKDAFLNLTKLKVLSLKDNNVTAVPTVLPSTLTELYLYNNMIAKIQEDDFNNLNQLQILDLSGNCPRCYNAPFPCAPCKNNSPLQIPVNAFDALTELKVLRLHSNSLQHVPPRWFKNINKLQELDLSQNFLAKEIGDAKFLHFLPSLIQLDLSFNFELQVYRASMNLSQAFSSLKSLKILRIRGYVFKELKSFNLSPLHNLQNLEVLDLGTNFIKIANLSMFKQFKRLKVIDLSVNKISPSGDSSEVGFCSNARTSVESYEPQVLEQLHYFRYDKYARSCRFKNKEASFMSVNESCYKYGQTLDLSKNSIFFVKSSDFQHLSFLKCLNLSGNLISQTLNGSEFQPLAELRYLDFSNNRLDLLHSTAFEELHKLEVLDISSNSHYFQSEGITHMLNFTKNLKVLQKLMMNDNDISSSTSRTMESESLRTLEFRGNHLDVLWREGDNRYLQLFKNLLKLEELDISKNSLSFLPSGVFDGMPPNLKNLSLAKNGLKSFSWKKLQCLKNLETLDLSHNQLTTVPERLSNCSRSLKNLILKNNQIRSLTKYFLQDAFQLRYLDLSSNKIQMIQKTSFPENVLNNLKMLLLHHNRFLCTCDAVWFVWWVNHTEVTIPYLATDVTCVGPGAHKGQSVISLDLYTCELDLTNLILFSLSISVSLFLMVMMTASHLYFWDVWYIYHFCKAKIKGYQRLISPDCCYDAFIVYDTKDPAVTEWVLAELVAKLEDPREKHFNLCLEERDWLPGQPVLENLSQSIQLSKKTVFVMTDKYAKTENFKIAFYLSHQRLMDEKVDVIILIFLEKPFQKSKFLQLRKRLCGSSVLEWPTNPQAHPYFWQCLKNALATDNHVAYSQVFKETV
Summary of the method: as §1

[1] = HEK-Blue cells overexpressing human TLR9, stimulated with ODN2006 5 nM, read-out: TLR 9 IC50

SMILES | pIC50 (human TLR9) | pIC50 (human TLR9; [1]) | pIC50 (human TLR8) | pIC50 (human TLR7)
CC(C)CN1C2CCC1CC(N1CCC(c3ccc4nc(-c5ccc(S(C)(=O)=O)cc5)[nH]c4c3F)CC1)C2 (single isomer, unassigned) [Example 220, 7-fluoro-6-(1-(8-isobutyl-8-azabicyclo[3.2.1]octan-3-yl)piperidin-4-yl)-2-(4-(methylsulfonyl)phenyl)-1H-benzo[d]imidazole] | 6.17 | 6.17 | < 4.30 | 4.38
CC(C)CN1C2CCC1CC(N1CCC(c3cc4c(cc3F)nc(-c3ccc(S(C)(=O)=O)cc3)n4C)CC1)C2 (single isomer, unassigned) [Example 228, 5-fluoro-6-(1-(8-isobutyl-8-azabicyclo[3.2.1]octan-3-yl)piperidin-4-yl)-1-methyl-2-(4-(methylsulfonyl)phenyl)-1H-benzo[d]imidazole] | 7.16 | 7.16 | 4.78 | 5.85
CC(C)CN1C2CCC1CC(N1CCC(c3cc4c(cc3F)nc(-c3ccc(S(C)(=O)=O)cc3)n4C)CC1)C2 (single isomer, unassigned) [Example 229, 5-fluoro-6-(1-(8-isobutyl-8-azabicyclo[3.2.1]octan-3-yl)piperidin-4-yl)-1-methyl-2-(4-(methylsulfonyl)phenyl)-1H-benzo[d]imidazole] | 7.02 | 7.02 | < 4.30 | 4.36
Cn1c(-c2ccc(S(C)(=O)=O)cc2)nc2cc(F)c(C3CCN(C4CC5CCC(C4)N5C4COC4)CC3)cc21 (single isomer, unassigned) [Example 234, 5-fluoro-1-methyl-2-(4-(methylsulfonyl)phenyl)-6-(1-(8-(oxetan-3-yl)-8-azabicyclo[3.2.1]octan-3-yl)piperidin-4-yl)-1H-benzo[d]imidazole] | 6.82 | 6.82 | < 4.30 | < 4.30
Cn1c(-c2ccc(S(C)(=O)=O)cc2)nc2cc(F)c(C3CCN(C4CC5CCC(C4)N5C4COC4)CC3)cc21 (single isomer, unassigned) [Example 235, 5-fluoro-1-methyl-2-(4-(methylsulfonyl)phenyl)-6-(1-(8-(oxetan-3-yl)-8-azabicyclo[3.2.1]octan-3-yl)piperidin-4-yl)-1H-benzo[d]imidazole] | 5.77 | 5.76 | < 4.30 | < 4.30
COCCN1C2CCC1CC(N1CCC(c3cc4c(cc3F)nc(-c3ccc(S(C)(=O)=O)cc3)n4C)CC1)C2 (single isomer, unassigned) [Example 238, 5-fluoro-6-(1-(8-(2-methoxyethyl)-8-azabicyclo[3.2.1]octan-3-yl)piperidin-4-yl)-1-methyl-2-(4-(methylsulfonyl)phenyl)-1H-benzo[d]imidazole] | 7.24 | 7.24 | < 4.30 | 4.46

The remaining lines, values ahead:

pIC50 (human TLR9) | pIC50 (human TLR9; [1]) | pIC50 (human TLR8) | pIC50 (human TLR7) | SMILES
6.54 | 6.54 | < 4.30 | ≤ 4.29 | COCCN1C2CCC1CC(N1CCC(c3cc4c(cc3F)nc(-c3ccc(S(C)(=O)=O)cc3)n4C)CC1)C2 (single isomer, unassigned) [Example 239, 5-fluoro-6-(1-(8-(2-methoxyethyl)-8-azabicyclo[3.2.1]octan-3-yl)piperidin-4-yl)-1-methyl-2-(4-(methylsulfonyl)phenyl)-1H-benzo[d]imidazole]
7.49 | 7.49 | < 4.30 | 4.67 | Cn1c(-c2ccc(S(C)(=O)=O)cc2)nc2cc(C3CCN(C4CC5CCC(C4)N5CC4CC4)CC3)c(F)cc21 (single isomer, unassigned) [Example 249, 5-(1-(8-(cyclopropylmethyl)-8-azabicyclo[3.2.1]octan-3-yl)piperidin-4-yl)-6-fluoro-1-methyl-2-(4-(methylsulfonyl)phenyl)-1H-benzo[d]imidazole]
6.96 | 6.96 | < 4.30 | 4.44 | Cn1c(-c2ccc(S(C)(=O)=O)cc2)nc2cc(C3CCN(C4CC5CCC(C4)N5CC4CC4)CC3)c(F)cc21 (single isomer, unassigned) [Example 250, 5-(1-(8-(cyclopropylmethyl)-8-azabicyclo[3.2.1]octan-3-yl)piperidin-4-yl)-6-fluoro-1-methyl-2-(4-(methylsulfonyl)phenyl)-1H-benzo[d]imidazole]
6.55 | 6.56 | < 4.30 | < 4.30 | Cn1c(-c2ccc(S(C)(=O)=O)cc2)nc2cc(C3CCN(C4CC5CCC(C4)N5C4COC4)CC3)c(F)cc21 (single isomer, unassigned) [Example 253, 6-fluoro-1-methyl-2-(4-(methylsulfonyl)phenyl)-5-(1-(8-(oxetan-3-yl)-8-azabicyclo[3.2.1]octan-3-yl)piperidin-4-yl)-1H-benzo[d]imidazole]
